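Growth conditions: 96-well plates. Treatment: test compound, 48 hours, 5 concentrations. Analysis: linear interpolation between bracketing concentrations; unreached endpoints set to highest concentration. GI50: concentration for 50% inhibition of growth.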 The source made the active and inactive calls. No stated cut-off is given here; in the data, active = GI50 up to about 1.1 µM and inactive = higher.
Columns and labels:
Assay in all cases: NCI-60 cell line screen, 48 h
[1] = system: SK-MEL-5
[2] = system: DMS-114
[3] = system: KM-20L2
[4] = system: NCI-H522
[5] = system: KM12
[6] = system: COLO 205
[7] = system: EKVX
[8] = system: SK-OV-3
[9] = system: Malme-3M
[10] = system: RPMI-8226
[11] = system: U-251
[12] = system: OVCAR-4
[13] = system: HCC 2998
[14] = system: SF-268
[15] = system: OVCAR-5
[16] = system: UACC-62
[17] = system: RXF 393
[18] = system: HCT-15
[19] = system: UO-31
[20] = system: HOP-62

Q: Which results are given for Cc1ccccc1/C=N/C12CC3CC(CC(C3)C1)C2?
A: GI50 [1]: > 100 µM (inactive); GI50 [2]: > 100 µM (inactive); GI50 [3]: > 100 µM (inactive); GI50 [4]: > 100 µM (inactive); GI50 [5]: > 100 µM (inactive); GI50 [6]: > 100 µM (inactive); GI50 [7]: > 100 µM (inactive); GI50 [8]: > 100 µM (inactive); GI50 [9]: > 100 µM (inactive); GI50 [10]: > 100 µM (inactive); GI50 [11]: > 100 µM (inactive); GI50 [12]: > 100 µM (inactive); GI50 [13]: > 100 µM (inactive); GI50 [14]: > 100 µM (inactive); GI50 [15]: > 100 µM (inactive); GI50 [16]: > 100 µM (inactive); GI50 [17]: > 100 µM (inactive); GI50 [18]: > 100 µM; GI50 [19]: > 100 µM (inactive); GI50 [20]: > 100 µM (inactive)

From ChEMBL document CHEMBL1201862, “PubChem BioAssay data set” (2004)
